{"source": "patent US6277825A", "about": "(priority 1999, dated 2001)", "key": {"[1]": {"test_system": "Frings audiogenic seizure susceptible mice", "assay_type": "in vivo", "details": "for ED50: mouse, in vivo"}, "[2]": {"test_system": "Frings audiogenic seizure-susceptible mice", "details": "mouse, in vivo"}, "[3]": {"test_system": "CF No. 1 mice", "details": "mouse, in vivo"}, "[4]": {"test_system": "young (<2 weeks old) mice", "assay_type": "in vivo"}, "[5]": {"test_system": "young (<2 weeks old) mice", "assay_type": "in vivo", "remark": "listed apart in the source"}, "[6]": {"test_system": "young (<2 weeks old) mice", "assay_type": "in vivo", "remark": "listed apart in the source"}, "[7]": {"details": "37° C.; 50 μg/ml"}}, "note": "Where “and” joins values, the source holds several entries; their conditions need not be identical. Equal values may be shown once. Read-outs that look alike come from different tables or passages of the source. Where no end group is shown, it is not given here. [ ]: non-standard residue; d: D form. Gla = N[C@@H](CC(C(=O)O)C(=O)O)C(=O)O"}
{"compound": "NC(=O)OCC(COC(N)=O)c1ccccc1", "note": "[Felbamate, reference compound]", "values": [{"measurement": "animals protected", "setting": "[1]; 30 min", "result": "5/8 and 4/8"}, {"measurement": "TD50 (rotorod performance, minimal motor impairment)", "setting": "[2]", "result": "> 630", "unit": "nmol"}]}
{"compound": "CC(C(O)c1ccc(O)cc1)N1CCC(Cc2ccccc2)CC1", "note": "(centres unmarked) [Ifenprodil, reference compound]", "values": [{"measurement": "ED50", "setting": "[1]", "result": "~ 25 nmols"}, {"measurement": "P.I. (TD50/ED50)", "setting": "[2]", "result": "< 1"}, {"measurement": "TD50", "setting": "[2]", "result": "< 25"}]}
{"compound": "Nc1nnc(-c2cccc(Cl)c2Cl)c(N)n1", "note": "[Lamotrigine, reference compound]", "values": [{"measurement": "ED50", "setting": "[1]", "result": 146, "unit": "nmol"}, {"measurement": "PI (TD50/ED50)", "setting": "[2]", "result": "> 2.0"}, {"measurement": "TD50 (rotorod performance, minimal motor impairment)", "setting": "[2]", "result": "> 290", "unit": "nmol"}]}
{"compound": "CCC1(c2ccccc2)C(=O)NC(=O)NC1=O", "note": "[Phenobarbitol, reference compound]", "values": [{"measurement": "PI (TD50/ED50)", "setting": "[2]", "result": 0.5}, {"measurement": "TD50 (rotorod performance, minimal motor impairment)", "setting": "[2]", "result": 68.8, "unit": "nmol"}]}
{"compound": "CC1(C)O[C@@H]2[C@@H](CO[C@@]3(COS(N)(=O)=O)OC(C)(C)O[C@@H]23)O1", "note": "[Topiramate, reference compound]", "values": [{"measurement": "ED50", "setting": "[1]", "result": "> 150", "unit": "nmol"}, {"measurement": "TD50 (rotorod performance, minimal motor impairment)", "setting": "[2]", "result": "no marked"}]}
{"compound": "CCCC(CCC)C(=O)O", "note": "[Valproic Acid, reference compound]", "values": [{"measurement": "ED50", "setting": "[1]", "result": 566, "unit": "nmol"}, {"measurement": "PI (TD50/ED50)", "setting": "[2]", "result": "1.1-2.2"}]}
{"compound": "Conantokin T (GE[Gla][Gla]YQKML[Gla]NLR[Gla]AEVKKNA-NH2; N-terminus assumed; SMILES CSCC[C@H](NC(=O)[C@H](CCCCN)NC(=O)[C@H](CCC(N)=O)NC(=O)[C@H](Cc1ccc(O)cc1)NC(=O)[C@H](CC(C(=O)O)C(=O)O)NC(=O)[C@H](CC(C(=O)O)C(=O)O)NC(=O)[C@H](CCC(=O)O)NC(=O)CN)C(=O)N[C@@H](CC(C)C)C(=O)N[C@@H](CC(C(=O)O)C(=O)O)C(=O)N[C@@H](CC(N)=O)C(=O)N[C@@H](CC(C)C)C(=O)N[C@@H](CCCNC(=N)N)C(=O)N[C@@H](CC(C(=O)O)C(=O)O)C(=O)N[C@@H](C)C(=O)N[C@@H](CCC(=O)O)C(=O)N[C@H](C(=O)N[C@@H](CCCCN)C(=O)N[C@@H](CCCCN)C(=O)N[C@@H](CC(N)=O)C(=O)N[C@@H](C)C(N)=O)C(C)C) [Con T]", "values": [{"measurement": "#Protected/#Tested", "setting": "[1]; 10 min", "result": "0/9"}, {"measurement": "% Protected", "setting": "[1]; 10 min", "result": 0, "unit": "%"}, {"measurement": "#Protected/#Tested", "setting": "[1]; 20 min", "result": "1/2"}, {"measurement": "% Protected", "setting": "[1]; 20 min", "result": 50, "unit": "%"}, {"measurement": "#Protected/#Tested", "setting": "[1]; 30 min", "result": "2/6"}, {"measurement": "% Protected", "setting": "[1]; 30 min", "result": 33, "unit": "%"}, {"measurement": "#Protected/#Tested", "setting": "[1]; 60 min", "result": "4/6"}, {"measurement": "% Protected", "setting": "[1]; 60 min", "result": 67, "unit": "%"}, {"measurement": "#Protected/#Tested", "setting": "[1]; 240 min", "result": "1/6"}, {"measurement": "% Protected", "setting": "[1]; 240 min", "result": 17, "unit": "%"}, {"measurement": "anticonvulsant activity", "setting": "[3]", "result": "anticonvulsant activity"}, {"measurement": "Catalepsy Test, positive mice/tested", "setting": "[4]; 30 min", "result": "3/4"}, {"measurement": "Catalepsy Test, positive mice/tested", "setting": "[4]; 60 min", "result": "1/4"}, {"measurement": "Sleepy Test, positive mice/tested", "setting": "[5]; 30 min", "result": "4/4"}, {"measurement": "Sleepy Test, positive mice/tested", "setting": "[5]; 60 min", "result": "4/4"}, {"measurement": "Righting Reflex, mice that lost reflex/tested", "setting": "[6]; 30 min", "result": "2/4"}, {"measurement": "Righting Reflex, mice that lost reflex/tested", "setting": "[6]; 60 min", "result": "2/4"}, {"measurement": "P.I. (TD50/ED50)", "setting": "[2]", "result": 13}, {"measurement": "TD50", "setting": "[2]", "result": 0.228, "unit": "nmols"}, {"measurement": "behavioral toxicity (rotorod test)", "setting": "[2]", "result": "No animals exhibited behavioral toxicity"}, {"measurement": "stability in biological media", "setting": "[7]", "result": "stable in all biological media for up to 4 hours"}]}
